Patent publication US9428568B2, “Compositions and methods for modulating cell-cell fusion via intermediate-conductance calcium-activated potassium channels” (BOEHRINGER INGELHEIM INTERNATIONAL GMBH, priority 2008, dated 2016)
Entries after “also recorded” stand apart in the source; their conditions may differ. Read-outs that look alike come from different tables or passages of the source.

Assays:
[1] = target: SK4 channels (Homo sapiens, UniProt O15554); conditions: cited from earlier work
[2] = tested on: bone marrow-derived macrophages from WT mice; assay: Osteoclastogenesis / cell fusion of bone marrow-derived macrophages of WT mice under M-CSF+RANKL (TRAP+ osteoclast-like cells); format: cell-based, mouse
Excerpt: Bone marrow- and spleen-derived mouse osteoclasts. These cells were generated from four- to twelve-week-old sk4^+/+ and sk4^−/− mice as previously described (Cui et al. (2007) Proc. Natl. Acad. Sci. USA 104:14436-14441; Epub 2007 Aug. 28). Bone marrow and spleen cells were isolated, mechanically dissociated and cultured at a density of 1.33×10^6 cells per cm^2 in MEM containing 10% heat-inactivated fetal bovine serum (HyClone, Logan, Utah), 100 units/ml penicillin-streptomycin (Gibco Invitrogen, Carlsbad, Calif.), 1% MEM vitamins, 1% glutamine, and 30 ng/ml M-CSF (PeproTech, Inc. Rocky Hill, N.J.). RANKL (PeproTech, Inc.) was added at a concentration of 40 ng/ml. Media was changed every three days. To assess the formation of an actin ring, a landmark of osteoclast activity, cells were cultured in the presence of M-CSF (20 ng/ml) and RANKL (40 ng/ml) on glass slides for 8 days, fixed and reacted with phalloidin-Alexa 568 and Topro-3. To further assess resorptive activity, cells were cultured on Osteologic slides that are coated with artificial bone made of calcium-phosphate crystals. After 8 days, cells were lysed and the substrates stained with silver nitrate according to the supplier's instructions. The resorbed areas on slides were recorded by histomorphometry.

[3] = tested on: human PBMCs; assay: Human osteoclastogenesis / cell fusion of PBMCs under M-CSF+RANKL stimulation (TRAP+ osteoclast-like cells); format: cell-based; conditions: for IC50: PBMC, read-out: inhibition of cell fusion, IC50; for osteoclast number / osteoclast surface area: dose-dependent
Description: Human osteoclasts. These cells were generated using normal peripheral blood blood (Allcells, Emeryville, Calif.). Peripheral blood monocytes were isolated using Ficoll-Paque and cultured at a concentration of 3×10^6 cells/ml in MEME supplemented with 10% FCS, recombinant human M-CSF (25 ng/ml) and recombinant human RANKL (40 ng/ml). The medium was changed once a week.

[4] = general statement in the definition of SK4 channels

Molecule | IC50 ([3]; FIGS. 10A-B) [nM] | osteoclast number [3] | osteoclast surface area [3] | block of SK4 channels [1, 4] | also measured
Clc1ccccc1C(c1ccccc1)(c1ccccc1)n1ccnc1 [clotrimazole, 1-[(2-chlorophenyl)-diphenylmethyl]-1H-imidazole] | – | – | – | – | block of SK4 channels [1]: blocked
NC(=O)C(c1ccccc1)(c1ccc(F)cc1)c1ccc(F)cc1 [ICA-17043, 2,2-bis(4-fluorophenyl)-2-phenylacetamide] | 300 | decreased | decreased | – | osteoclastogenesis (surface area of TRAP+ osteoclast-like cells, POC relative to no compound control) ([2]; bone marrow-derived macrophages of WT (SK4+/+) mice, FIGS. 7A-B, five replicates): attenuated osteoclastogenesis in a dose dependent manner; also recorded: prevent osteoclastogenesis in a dose-dependent manner; concentration at which cell fusion was significantly inhibited (TRAP-stained images) ([2]; bone marrow-derived macrophages of WT mice, FIG. 7C): 0.36 µM; human osteoclastogenesis in vitro (surface area of TRAP+ osteoclast-like cells, POC relative to no compound control) ([3]; FIGS. 10A-B, four replicates): inhibited human osteoclastogenesis in vitro in a dose-dependent manner; also recorded: prevent osteoclastogenesis in a dose-dependent manner
iberiotoxin | – | – | – | not blocked | –
Clc1ccccc1C(c1ccccc1)(c1ccccc1)n1cccn1 [TRAM-34, 1-[(2-chlorophenyl)diphenylmethyl]-1H-pyrazole] | 800 | decreased | decreased | – | –
CC(=O)N1CCN(c2ccc(OCC3COC(Cn4ccnc4)(c4ccc(Cl)cc4Cl)O3)cc2)CC1 (stereo not shown) [ketoconazole] | – | – | – | not blocked | –
charybdotoxin | – | – | – | blocked | –
